Data on 16 compounds can be found in patent US7745390B2, “Antimicrobial peptides” (priority 2005, dated 2010).

The subject of experiment [1] is B. cereus. It counts as cell-based. The following applies: pH 7.2. As to the method: (§1) The experiments described above characterizing the activity of granulysin peptides G1-G18 relied on counting bacterial colonies on plates. This assay is quite labor intensive and would not allow evaluation of many different compounds on a number of different microbes. Therefore, we optimized an assay in which the entire procedure could be completed in a single microtiter well. Briefly, peptides are diluted in 10 mM phosphate buffer, pH 7.2 supplemented with 0.03% LB (J. Sambrook, D. W. Russell, Molecular Cloning: A Laboratory Manual (Cold Spring Harbor Laboratory Press, New York, ed. 3, 2001) pg. A2.2, Retrieved from http://openwetware.org/wiki/LB) and 25 μl is added to microtiter wells. Bacteria (25 μl) are added (˜5×10^6 colony forming units/ml) in the same buffer. After a 3-hour incubation at 37° C., 150 μl of LB is added and the plates are incubated overnight. The OD at 600 nm is read on an ELISA plate reader. The minimum inhibitory concentration (MIC) is the lowest concentration allowing no bacterial growth. The IC50 is the concentration of peptide that results in 50% growth compared to the medium.
(§2) We now describe additional peptides and their activity. The peptides have been designed, synthesized, and have been tested for lysis of E. coli and S. typhimurium (gram negative bacteria), B. cereus (gram positive bacterium). Results are shown in Table 2 along with the amino acid sequence of the peptide. Changes from the naturally occurring sequence are underlined. In general, the desired result is lysis of bacteria at low concentration (<1 μM).
(§3) In Table 2, Columns 2-7 are the MIC and IC50 (concentration required for 50% inhibition of growth) for each organism (E. coli, Salmonella, and B. cereus). The MIC (minimum inhibitory concentration) was determined as described above, in a multiwell plate assay. […] L-isomer amino acids are designated by capital letters while D-isomer amino acids are designated by lower case letters.

Experiment [2] relates to E. coli DH5a. It counts as cell-based. The following applies: DH5a, pH 7.2. On the procedure:
as §1, §2, §3

For experiment [3], the system named is Salmonella. It counts as cell-based, S. typhimurium. The note with it: pH 7.2. On the procedure: as §1, §2, §3

Square brackets hold non-standard residues; d marks the D form. Ends that are not written are not given here. Peptide text beside a SMILES is read from it. Chg = N[C@H](C(=O)O)C1CCCCC1

Turning to `CC[C@@H](C)[C@@H](NC(=O)[C@@H](NC(=O)[C@H](CCCNC(=N)N)NC(=O)[C@@H](CO)NC(=O)[C@H](CCC(N)=O)NC(=O)[C@@H](CCCNC(=N)N)NC(=O)[C@@H](CCCNC(=N)N)NC(=O)[C@H](CCSC)NC(=O)[C@H](Cc1ccccc1)NC(=O)[C@H](CCCNC(=N)N)NC(=O)[C@H](CCCNC(=N)N)NC(=O)[C@@H](C)NC(=O)[C@@H](NC(=O)[C@H](CC(=O)O)NC(=O)[C@@H](N)CCCNC(=N)N)C(C)C)C(C)C)C(=O)N[C@@H](CO)C(=O)N[C@@H](CCCNC(=N)N)C(=O)N[C@@H](CC(C)C)C(=O)N[C@H](C(=O)O)C(C)C` [Peptide G12.18, RDVaRRFMrrQsRViSRLV] (H-RDV[dA]RRFM[dR][dR]Q[dS]RV[dI]SRLV-OH; N-terminus and C-terminus assumed), in experiment [1], the “B. cereus MIC” value was determined as 5.6 µM and the IC50 (commonly the concentration needed to halve the response being measured) was 3.51 µM. Moreover, in experiment [2], the “E. coli DH5a MIC” value stood at 2.9 µM and half-maximal inhibition (IC50) required 1 µM. In addition, in experiment [3], 1.61 µM corresponded to half-maximal inhibition (IC50) and the “Salmonella MIC” value was found to be 2.8 µM.

Consider RRLLRRLLRR [Peptide G11.20, RRLLRRLLRR], for which, in experiment [1], the “B. cereus MIC” value is over 10 µM and the IC50 is over 10 µM. In experiment [2], the “E. coli DH5a MIC” value was over 10 µM and inhibition was half-maximal at 7.7 µM (IC50). Besides, in experiment [3], the IC50 was 7.69 µM and the “Salmonella MIC” value is over 10 µM.

For “SDVAKKFMKKQSKVIKKLV [Peptide G12.23, SDVAKKFMKKQSKVIKKLV]”, in experiment [1], the “B. cereus MIC” value was over 10 µM and 7.7 µM corresponded to half-maximal inhibition (IC50). For the same compound, in experiment [2], the “E. coli DH5a MIC” value worked out at 3 µM and the IC50 is 1 µM. In experiment [3], the IC50 was over 10 µM and the “Salmonella MIC” value is over 10 µM.

As for “RDVARRFMRRQSRVISRLV [Peptide G12.15, RDVARRFMRRQSRVISRLV]”, in experiment [1], the “B. cereus MIC” value was 2.8 µM and the midpoint of inhibition, the IC50, lay at 1.75 µM. Also, in experiment [2], the “E. coli DH5a MIC” value stood at 1.4 µM and inhibition was half-maximal at 0.89 µM (IC50). In addition, in experiment [3], the IC50 was determined as 0.42 µM and the “Salmonella MIC” value was 0.69 µM.

RRDSRRFMRR [Peptide G11.11, RRDSRRFMRR]: in experiment [1], the “B. cereus MIC” value was over 10 µM and the half-maximal inhibitory concentration (IC50) was over 10 µM. For the same compound, in experiment [2], the “E. coli DH5a MIC” value was over 10 µM and inhibition was half-maximal at 7.45 µM (IC50). In addition, in experiment [3], the IC50 was over 10 µM and the “Salmonella MIC” value was over 10 µM.

Turning to “QKSVSKAATKVSKTGKSKW [Peptide G13.9, QKSVSKAATKVSKTGKSKW]”, in experiment [1], the “B. cereus MIC” value is over 10 µM and the IC50 was found to be 7.7 µM. Further, in experiment [2], the “E. coli DH5a MIC” value turned out to be 1.45 µM and the IC50 is 0.89 µM. For the same compound, in experiment [3], the IC50 is over 10 µM and the “Salmonella MIC” value was over 10 µM.

With “RRVSRRFMRRGSRRVSRRFMRRGSRRVSRRFMRR [Peptide G11.10]”, in experiment [1], the “B. cereus MIC” value worked out at 0.35 µM and the half-maximal inhibitory concentration (IC50) turned out to be 0.21 µM. In experiment [2], the “E. coli DH5a MIC” value was 0.35 µM and the IC50 was 0.21 µM. Moreover, in experiment [3], inhibition was half-maximal at 0.21 µM (IC50) and the “Salmonella MIC” value was determined as 0.35 µM.

Consider KKVSKKFMKK [Peptide G11.8, KKVSKKFMKK], for which, in experiment [1], the “B. cereus MIC” value is over 10 µM and the IC50 is over 10 µM. Moreover, in experiment [2], the “E. coli DH5a MIC” value is over 10 µM and the 50% inhibitory concentration (IC50) is over 10 µM. For the same compound, in experiment [3], the IC50 is over 10 µM and the “Salmonella MIC” value was over 10 µM.

Turning to `CC(C)[C@H](NC(=O)[C@H](CO)NC(=O)[C@H](CCCNC(=N)N)NC(=O)[C@@H](N)CCC(N)=O)C(=O)N[C@@H](CO)C(=O)N[C@@H](CCCNC(=N)N)C(=O)N[C@H](C)C(=O)N[C@H](C)C(=O)N[C@H](C(=O)N[C@@H](CCCNC(=N)N)C(=O)N[C@H](C(=O)N[C@@H](CO)C(=O)N[C@@H](CCCNC(=N)N)C(=O)N[C@H](C(=O)NCC(=O)N[C@@H](CCCNC(=N)N)C(=O)N[C@@H](CO)C(=O)N[C@@H](CCCNC(=N)N)C(=O)N[C@@H](Cc1c[nH]c2ccccc12)C(=O)O)[C@@H](C)O)C(C)C)[C@@H](C)O` [Peptide G13.7, QRSVSRaaTRVSRTGRSRW] (H-QRSVSR[dA][dA]TRVSRTGRSRW-OH; N-terminus and C-terminus assumed), in experiment [1], the “B. cereus MIC” value was over 10 µM and the IC50 came to 7.7 µM. Besides, in experiment [2], the “E. coli DH5a MIC” value is 5.7 µM and the IC50 was determined as 2.85 µM. In addition, in experiment [3], the IC50 is over 10 µM and the “Salmonella MIC” value was over 10 µM.

In the case of `CSCC[C@H](NC(=O)[C@H](Cc1ccccc1)NC(=O)[C@H](CCCNC(=N)N)NC(=O)[C@H](CCCNC(=N)N)NC(=O)[C@@H](NC(=O)[C@@H](NC(=O)[C@H](CCCNC(=N)N)NC(=O)[C@@H](N)CCCNC(=N)N)C(C)C)C1CCCCC1)C(=O)N[C@@H](CCCNC(=N)N)C(=O)N[C@@H](CCCNC(=N)N)C(=O)O` [Peptide G11.18, RRV-Chg-RRFMRR] (H-RRV[Chg]RRFMRR-OH; N-terminus and C-terminus assumed), in experiment [1], the “B. cereus MIC” value is 5.7 µM and half-maximal inhibition (IC50) required 3.51 µM. In experiment [2], the “E. coli DH5a MIC” value was 5.65 µM and half-maximal inhibition (IC50) required 3.4 µM. Also, in experiment [3], half-maximal inhibition (IC50) required 0.88 µM and the “Salmonella MIC” value turned out to be 1.4 µM.

For “QRSVSNAATRVSRTGRSRWRDVSRRFMRR [Peptide G8.3]”, in experiment [1], the “B. cereus MIC” value amounted to 1.25 µM and the IC50 was determined as 0.7 µM. Moreover, in experiment [2], the “E. coli DH5a MIC” value came out at 0.7 µM and the concentration for half-maximal inhibition (IC50) is 0.55 µM. In experiment [3], the IC50 is 0.45 µM and the “Salmonella MIC” value was 0.67 µM.

Regarding “QRSVSRAATRVSRTGRSRWRDVSRRFMRR [Peptide G8.4]”, in experiment [1], the “B. cereus MIC” value is 0.7 µM and inhibition was half-maximal at 0.45 µM (IC50). Besides, in experiment [2], the “E. coli DH5a MIC” value worked out at 0.7 µM and the IC50 amounted to 0.45 µM. Besides, in experiment [3], inhibition was half-maximal at 0.21 µM (IC50) and the “Salmonella MIC” value was determined as 0.35 µM.

For the compound RDVSRRFMRRRDVSRRFMRR [Peptide G11.39], in experiment [1], the “B. cereus MIC” value turned out to be 0.7 µM and inhibition was half-maximal at 0.45 µM (IC50). In experiment [2], the “E. coli DH5a MIC” value came out at 0.7 µM and it took 0.22 µM to reach half-maximal inhibition (IC50). Also, in experiment [3], the IC50 is 1.7 µM and the “Salmonella MIC” value amounted to 2.75 µM.

As to “GRSGWRDVSRNFRRG [Peptide G14.12, GRSGWRDVSRNFRRG]”, in experiment [1], the “B. cereus MIC” value was over 10 µM and the IC50 was over 10 µM. Besides, in experiment [2], the “E. coli DH5a MIC” value was over 10 µM and half-maximal inhibition (IC50) was put at 6.75 µM. Moreover, in experiment [3], the IC50 is over 10 µM and the “Salmonella MIC” value was over 10 µM.

Consider `CSCC[C@H](NC(=O)[C@H](Cc1ccccc1)NC(=O)[C@@H](CCCNC(=N)N)NC(=O)[C@@H](CCCNC(=N)N)NC(=O)[C@H](CO)NC(=O)[C@H](NC(=O)[C@@H](CCCNC(=N)N)NC(=O)[C@@H](N)CCCNC(=N)N)C(C)C)C(=O)N[C@H](CCCNC(=N)N)C(=O)N[C@@H](CCCNC(=N)N)C(=O)N[C@@H](CC(=O)O)C(N)=O` [Peptide G11.45, RrvSrrFMrRD] (H-R[dR][dV]S[dR][dR]FM[dR]RD-NH2; N-terminus assumed), for which, in experiment [1], the “B. cereus MIC” value was over 10 µM and the IC50 was over 10 µM. Further, in experiment [2], the “E. coli DH5a MIC” value is over 10 µM and the IC50 was over 10 µM. Besides, in experiment [3], the IC50 is over 10 µM and the “Salmonella MIC” value was over 10 µM.

For the compound “QRSVSNAATRVCRT [Peptide G10, QRSVSNAATRVCRT, reference compound]”, in experiment [1], the “B. cereus MIC” value is over 10 µM and the IC50 is over 10 µM. Besides, in experiment [2], the “E. coli DH5a MIC” value is over 10 µM and the IC50 was over 10 µM. Further, in experiment [3], the IC50 is over 10 µM and the “Salmonella MIC” value is over 10 µM.
